According to patent US20260250289A1, “BICYCLIC HETEROCYCLES AND THEIR USE AS WRN INHIBITORS” (Novartis AG, priority 2022, published 2026):

Experiments:
[1] = biological target: T1, WRN helicase (aa N517-P1238) (Homo sapiens, UniProt Q14191); experiment: WRN ATPase assay (DNA dependent ATP hydrolysis, ADP-Glo); format: biochemical; details: 3 hours pre-incubation, 300 micromolar ATP, FLAP26 DNA; geometric mean of at least 2
T1 construct: The core helicase motif of the WRN protein (aa N517-P1238) was produced for this assay; His (N); ZZ (N); 3C protease cleavage site (N); made in house; host or cells: Sf21 insect cells (baculovirus; virus and BIICs made in SF9)
In short: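 DNA-dependent ATP hydrolysis detected as ADP by ADP-Glo luminescence, using 300 μM ATP, 0.2 nM FLAP26 substrate and 10 nM WRN aa N517-P1238 (Tris pH 7.5 buffer, 2 mM MgCl2, 50 mM NaCl). IC50s fitted from normalized duplicate half-log dilutions; reported as geometric means of at least 2 replicates.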

SW48 cells = experiment: Proliferation assay SW48 (CellTiterGlo); format: cell-based; details: Homo sapiens, SW48, 96 h, SW48 colon carcinoma cells, 96 hours, CellTiterGlo; geometric mean of at least 2; read-out: Proliferation Assay SW48 GI50
In short: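 Read-out is CellTiterGlo luminescence after 96 hours of compound exposure, with % growth calculated against day-0 and vehicle-treated ATP levels. SW48 seeded at 2,000 cells/well, dosed next day with eight 3-fold serial dilutions, 0.1% DMSO. GI50 reported as geometric mean, at least 2 replicates.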

DLD1-WRN-KO cells = experiment: Proliferation assay DLD1-WRN-KO (CellTiterGlo, off-target effects); format: cell-based; details: 96 hours, geometric mean of at least 2
In short: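 DLD1 cells with CRISPR knockout of WRN were exposed overnight-seeded to eight 3-fold compound dilutions (0.1% DMSO) for 96 h at 37 °C. Viability was read as ATP by CellTiterGlo luminescence against a day-0 plate, giving GI50 and residual viability at top concentration.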

T1 sequence (Q14191 517-1238): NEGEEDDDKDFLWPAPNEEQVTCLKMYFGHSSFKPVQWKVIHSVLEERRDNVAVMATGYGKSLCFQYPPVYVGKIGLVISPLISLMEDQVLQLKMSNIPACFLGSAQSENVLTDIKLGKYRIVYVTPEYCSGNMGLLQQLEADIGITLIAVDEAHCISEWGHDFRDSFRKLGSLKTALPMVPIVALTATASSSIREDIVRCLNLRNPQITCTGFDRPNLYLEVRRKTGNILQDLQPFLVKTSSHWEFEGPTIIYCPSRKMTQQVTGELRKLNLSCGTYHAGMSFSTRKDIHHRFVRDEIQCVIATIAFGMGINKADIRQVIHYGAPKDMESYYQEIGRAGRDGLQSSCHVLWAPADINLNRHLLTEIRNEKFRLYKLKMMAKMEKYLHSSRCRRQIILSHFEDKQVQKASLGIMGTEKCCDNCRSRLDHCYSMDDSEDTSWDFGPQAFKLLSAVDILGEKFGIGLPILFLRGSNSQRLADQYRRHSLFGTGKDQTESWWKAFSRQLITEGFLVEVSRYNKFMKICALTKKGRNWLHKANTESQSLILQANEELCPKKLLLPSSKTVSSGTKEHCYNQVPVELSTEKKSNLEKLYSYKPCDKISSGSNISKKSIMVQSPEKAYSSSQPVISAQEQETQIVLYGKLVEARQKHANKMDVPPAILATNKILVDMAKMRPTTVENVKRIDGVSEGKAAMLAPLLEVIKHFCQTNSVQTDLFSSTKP

SMILES	IC50 [1]	GI50 (SW48 cells)	GI50 (DLD1-WRN-KO cells)
CCc1c(N2CCN(C(=O)c3c(O)ccc4ccncc34)CC2)c(=O)n2nc(C3=CCOCC3)nc2n1CC(=O)Nc1ccc(C(F)(F)F)cc1C [Example 40, 2-(2-(3,6-dihydro-2H-pyran-4-yl)-5-ethyl-6-(4-(7-hydroxyisoquinoline-8-carbonyl)piperazin-1-yl)-7-oxo-[1,2,4]triazolo[1,5-a]pyrimidin-4(7H)-yl)-N-(2-methyl-4-(trifluoromethyl)phenyl)acetamide]	40 nM	600 nM	> 10 µM
CCc1c(N2CCN(C(=O)c3ncc(F)c4cc[nH]c34)CC2)c(=O)n2nc(C3=CCOCC3)nc2n1CC(=O)Nc1ccc(C(F)(F)F)cc1C [Example 51, 2-(2-(3,6-dihydro-2H-pyran-4-yl)-5-ethyl-6-(4-(4-fluoro-1H-pyrrolo[2,3-c]pyridine-7-carbonyl)piperazin-1-yl)-7-oxo-[1,2,4]triazolo[1,5-a]pyrimidin-4(7H)-yl)-N-(2-methyl-4-(trifluoromethyl)phenyl)acetamide]	600 nM	2000 nM	7 µM
CCc1c(C2=CCN(C(C)=O)CC2)c(=O)n2nc(C3=CCC(OC)CC3)nc2n1CC(=O)Nc1ccc(C(F)(F)F)cc1 (stereo not drawn) [Example 140, 2-(6-(1-acetyl-1,2,3,6-tetrahydropyridin-4-yl)-5-ethyl-2-(4-methoxycyclohex-1-en-1-yl)-7-oxo-[1,2,4]triazolo[1,5-a]pyrimidin-4(7H)-yl)-N-(4-(trifluoromethyl)phenyl)acetamide]	100 nM	4000 nM	> 10 µM
Cc1ccnc(O)c1C(=O)N1CCN(c2c(C)n(CC(=O)Nc3ccc(C(F)(F)F)cc3)c3nc(C4=CCOCC4)nn3c2=O)CC1 [Example 27, 2-(2-(3,6-dihydro-2H-pyran-4-yl)-6-(4-(2-hydroxy-4-methylnicotinoyl)piperazin-1-yl)-5-methyl-7-oxo-[1,2,4]triazolo[1,5-a]pyrimidin-4(7H)-yl)-N-(4-(trifluoromethyl)phenyl)acetamide]	300 nM	> 10000 nM	> 10 µM
CC(=O)N1CCN(c2c(C)n(CC(=O)Nc3cc(F)c(Cl)cc3Cl)c3nc(C4=CCOCC4)nn3c2=O)CC1 [Example 97, 2-(6-(4-acetylpiperazin-1-yl)-2-(3,6-dihydro-2H-pyran-4-yl)-5-methyl-7-oxo-[1,2,4]triazolo[1,5-a]pyrimidin-4(7H)-yl)-N-(2,4-dichloro-5-fluorophenyl)acetamide]	1000 nM	4000 nM	> 10 µM
Cc1c(N2CCN(C(=O)c3cc(F)ccc3O)CC2)c(=O)n2nc(C3=CCOCC3)nc2n1CC(=O)Nc1ccc(C(F)(F)F)cc1 [Example 17, 2-(2-(3,6-dihydro-2H-pyran-4-yl)-6-(4-(5-fluoro-2-hydroxybenzoyl)piperazin-1-yl)-5-methyl-7-oxo-[1,2,4]triazolo[1,5-a]pyrimidin-4(7H)-yl)-N-(4-(trifluoromethyl)phenyl)acetamide]	50 nM	900 nM	8 µM
CCc1c(N2CCN(C(=O)c3ncn(C)c3O)CC2)c(=O)n2nc(C3=CCOCC3)nc2n1CC(=O)Nc1ccc(C(F)(F)F)cc1Cl [Example 67, N-(2-chloro-4-(trifluoromethyl)phenyl)-2-(2-(3,6-dihydro-2H-pyran-4-yl)-5-ethyl-6-(4-(5-hydroxy-1-methyl-1H-imidazole-4-carbonyl)piperazin-1-yl)-7-oxo-[1,2,4]triazolo[1,5-a]pyrimidin-4(7H)-yl)acetamide]	300 nM	3000 nM	> 10 µM
CC(=O)N1CCN(c2nc3n(CC(=O)Nc4ccc(Cl)cc4)c(C)c(N4CCN(C(=O)c5ccncc5O)CC4)c(=O)n3n2)CC1 [Example 2, 2-(2-(4-acetylpiperazin-1-yl)-6-(4-(3-hydroxyisonicotinoyl)piperazin-1-yl)-5-methyl-7-oxo-[1,2,4]triazolo[1,5-a]pyrimidin-4(7H)-yl)-N-(4-chlorophenyl)acetamide]	300 nM	> 10000 nM	> 10 µM
